Laboratory results as given in patent publication US20140105921A1, “Prodrugs of Peptide Epoxy Ketone Protease Inhibitors” (Onyx Therapeutics, Inc., priority 2012, published 2014).
Read-outs that look alike come from different tables or passages of the source.

Legend:
c20s = c20s (Homo sapiens, UniProt P20618+P28074); experiment: Purified PI, IC50 against c20s; format: biochemical
i20s = i20s (Homo sapiens, UniProt P20618+P28062); experiment: Purified PI, IC50 against i20s; format: biochemical
[1] = Conversion of Prodrugs by Human Liver S9; format: in vitro ADME
[2] = Buffer Conversion Rates of Prodrugs to Compound B; format: physicochemical
[3] = In vivo mouse PK of Compound A and PEG prodrugs; conditions: for [Cmpd A]: BLOQ = below level of quantitation
[4] = Table G, read-out: IC50 Slope c20s
[5] = Table G, value marked *: did not converge, read-out: IC50 Slope i20s
[6] = Table H, read-out: IC50 Slope c20s
[7] = Table G, value marked *: did not converge, read-out: IC50 Slope c20s
[8] = Table G, read-out: IC50 Slope i20s
[9] = IC50 60 minute point c20s, Table H, 60 minute point
[10] = IC50 60 minute point i20s, Table H, 60 minute point
[11] = Table H, read-out: IC50 Slope i20s

## CC(=O)N/N=C(/[C@H](CC(C)C)NC(=O)[C@H](Cc1ccccc1)NC(=O)[C@H](CC(C)C)NC(=O)[C@H](CCc1ccccc1)NC(=O)CN1CCOCC1)[C@@]1(C)CO1
c20s; [4]
  IC50: 678 nM
i20s; [5]
  IC50: 2180 nM

## COC[C@H](NC(=O)c1cnc(C)s1)C(=O)N[C@@H](COC)C(=O)N[C@@H](Cc1ccccc1)C(=O)[C@](C)(O)COC(C)=O
c20s; Table H, 60 minute point
  IC50 60 minute point c20s: inactive
i20s; Table H, 60 minute point
  IC50 60 minute point i20s: inactive

## CCOC(=O)C(=O)O[C@](C)(CI)C(=O)[C@H](Cc1ccccc1)NC(=O)[C@H](COC)NC(=O)[C@H](COC)NC(=O)c1cnc(C)s1 [20-16]
[1]
  Human Liver S9 % Conversion @ 1 hour: 24%

## COC[C@H](NC(=O)c1cnc(C)s1)C(=O)N[C@@H](COC)C(=O)N[C@@H](Cc1ccccc1)C(=O)[C@](C)(O)COS(=O)(=O)Cc1ccccc1 [drawing 374]
c20s; [6]
  IC50: 95.4 nM

## COC[C@H](NC(=O)c1cnc(C)s1)C(=O)N[C@@H](COC)C(=O)N[C@@H](Cc1ccccc1)C(=O)[C@](C)(O)COS(=O)(=O)C1CCOCC1 [drawing 373]
c20s; [6]
  IC50: 193 nM
i20s; Table H, value marked * (Table G: did not converge), read-out: IC50 Slope i20s
  IC50: 278 nM

## CO/N=C(/[C@H](CC(C)C)NC(=O)[C@H](Cc1ccccc1)NC(=O)[C@H](CC(C)C)NC(=O)[C@H](CCc1ccccc1)NC(=O)CN1CCOCC1)[C@@]1(C)CO1
c20s; [7]
  IC50: 2610 nM

## CC(C)C[C@H](NC(=O)[C@H](CCc1ccccc1)NC(=O)CN1CCOCC1)C(=O)N[C@@H](Cc1ccccc1)C(=O)N[C@@H](CC(C)C)/C(=N/O)[C@@]1(C)CO1
c20s; [7]
  IC50: 279 nM
i20s; [5]
  IC50: 2290 nM

## CC(C)C[C@H](NC(=O)[C@H](CCc1ccccc1)NC(=O)CN1CCOCC1)C(=O)N[C@@H](Cc1ccccc1)C(=O)N[C@@H](CC(C)C)C(=O)[C@](C)(O)COC(=O)c1c(Cl)cccc1Cl
i20s; [8]
  IC50: 660 nM

## COC[C@H](NC(=O)c1cnc(C)s1)C(=O)N[C@@H](COC)C(=O)N[C@@H](Cc1ccccc1)C(=O)[C@](C)(O)COC(=O)c1c(Cl)cccc1Cl
c20s; Table H, 60 minute point
  IC50 60 minute point c20s: inactive
i20s; Table H, 60 minute point
  IC50 60 minute point i20s: inactive

## COC[C@H](NC(=O)c1cnc(C)s1)C(=O)N[C@@H](COC)C(=O)N[C@@H](Cc1ccccc1)C(=O)[C@@](C)(CI)OC(=O)CCl [20-23]
[1]
  Human Liver S9 % Conversion @ 1 hour: 22%

## CC(C)C[C@H](NC(=O)[C@H](CCc1ccccc1)NC(=O)CN1CCOCC1)C(=O)N[C@@H](Cc1ccccc1)C(=O)N[C@@H](CC(C)C)C(=O)[C@](C)(O)CCl
c20s; [4]
  IC50: 615 nM
i20s; [8]
  IC50: 143 nM

## COC[C@H](NC(=O)c1cnc(C)s1)C(=O)N[C@@H](COC)C(=O)N[C@@H](Cc1ccccc1)C(=O)[C@](C)(O)COS(C)(=O)=O
c20s; [9]
  IC50: 459 nM
c20s; [6]
  IC50: 103 nM
i20s; [10]
  IC50: 614 nM
i20s; [11]
  IC50: 179 nM

## COCCOCCOCCOCCC(=O)N/N=C(/[C@H](CC(C)C)NC(=O)[C@H](Cc1ccccc1)NC(=O)[C@H](CC(C)C)NC(=O)[C@H](CCc1ccccc1)NC(=O)CN1CCOCC1)[C@@]1(C)CO1
i20s; [5]
  IC50: 3240 nM

## COC[C@H](NC(=O)c1cnc(C)s1)C(=O)N[C@@H](COC)C(=O)N[C@@H](Cc1ccccc1)C(=O)[C@](C)(O)COS(=O)(=O)C1CCOCC1 [compound 22]
[2]
  Buffer pH = 7.4 % Conversion @ 1 hour: 9.8%

## COC[C@H](NC(=O)c1cnc(C)s1)C(=O)N[C@@H](COC)C(=O)N[C@@H](Cc1ccccc1)C(=O)[C@@](C)(CI)OC(=O)CCCOC(C)=O [20-13]
[1]
  Human Liver S9 % Conversion @ 1 hour: 11%

## Cc1ccc(S(=O)(=O)OC[C@@](C)(O)C(=O)[C@H](CC(C)C)NC(=O)[C@H](Cc2ccccc2)NC(=O)[C@H](CC(C)C)NC(=O)[C@H](CCc2ccccc2)NC(=O)CN2CCOCC2)cc1
c20s; [4]
  IC50: 73.7 nM
i20s; [8]
  IC50: 316 nM

## COC[C@H](NC(=O)c1cnc(C)s1)C(=O)N[C@@H](COC)C(=O)N[C@@H](Cc1ccccc1)C(=O)[C@](C)(O)COS(=O)(=O)c1ccc(C)cc1
c20s; [9]
  IC50: 748 nM
c20s; [6]
  IC50: 141 nM
i20s; [10]
  IC50: 637 nM
i20s; [11]
  IC50: 252 nM

## COC[C@H](NC(=O)c1cnc(C)s1)C(=O)N[C@@H](COC)C(=O)N[C@@H](Cc1ccccc1)C(=O)[C@@](C)(CI)OC(=O)CCCCSC(C)=O [20-10]
[1]
  Human Liver S9 % Conversion @ 1 hour: 3%

## CC(C)C[C@H](NC(=O)[C@H](CCc1ccccc1)NC(=O)CN1CCOCC1)C(=O)N[C@@H](Cc1ccccc1)C(=O)N[C@@H](CC(C)C)/C(=N/OCc1ccccc1)[C@@]1(C)CO1
c20s; [4]
  IC50: 539 nM
i20s; [8]
  IC50: 2180 nM

## CC(C)C[C@H](NC(=O)[C@H](CCc1ccccc1)NC(=O)CN1CCOCC1)C(=O)N[C@@H](Cc1ccccc1)C(=O)N[C@@H](CC(C)C)C(=O)[C@](C)(O)COS(C)(=O)=O
c20s; [4]
  IC50: 37.7 nM
i20s; [8]
  IC50: 98.7 nM

## COC[C@H](NC(=O)c1cnc(C)s1)C(=O)N[C@@H](COC)C(=O)N[C@@H](Cc1ccccc1)C(=O)[C@](C)(O)CI [20-1]
[2]
  Buffer pH = 7.4 % Conversion @ 1 hour: 24%

## CCCCS(=O)(=O)OC[C@@](C)(O)C(=O)[C@H](Cc1ccccc1)NC(=O)[C@H](COC)NC(=O)[C@H](COC)NC(=O)c1cnc(C)s1 [20-7]
[2]
  Buffer pH = 7.4 % Conversion @ 1 hour: 4.2%

## CC(C)C[C@H](NC(=O)[C@H](CCc1ccccc1)NC(=O)CN1CCOCC1)C(=O)N[C@@H](Cc1ccccc1)C(=O)N[C@@H](CC(C)C)C(=O)[C@@]1(C)CO1 [Cmpd A, (S)-4-methyl-N—((S)-1-(((S)-4-methyl-1-((R)-2-methyloxiran-2-yl)-1-oxopentan-2-yl)amino)-1-oxo-3-phenylpropan-2-yl)-2-((S)-2-(2-morpholinoacetamido)-4-phenylbutanamido)pentanamide]
[3]; Time 4 hr
  [Cmpd A]: BLOQ
[3]; Time 6 hr
  [Cmpd A]: BLOQ
[3]; Time 24 hr
  [Cmpd A]: BLOQ
[3]; plasma, Time 1 hr, read-out: [Cmpd A]
  concentration at 1 hr: 8 nM

## CC(=O)OC[C@@](C)(O)C(=O)[C@H](CC(C)C)NC(=O)[C@H](Cc1ccccc1)NC(=O)[C@H](CC(C)C)NC(=O)[C@H](CCc1ccccc1)NC(=O)CN1CCOCC1
c20s; [7]
  IC50: 2440 nM
i20s; [8]
  IC50: 8190 nM

## COC[C@H](NC(=O)c1cnc(C)s1)C(=O)N[C@@H](COC)C(=O)N[C@@H](Cc1ccccc1)C(=O)[C@](C)(O)CCl [20-2]
[2]
  Buffer pH = 7.4 % Conversion @ 1 hour: 0%

## COC[C@H](NC(=O)c1cnc(C)s1)C(=O)N[C@@H](COC)C(=O)N[C@@H](Cc1ccccc1)C(=O)[C@@](C)(CI)OC(=O)OCc1oc(=O)oc1C [20-15]
[1]
  Human Liver S9 % Conversion @ 1 hour: 30%

## CC(C)C[C@H](NC(=O)[C@H](CCc1ccccc1)NC(=O)CN1CCOCC1)C(=O)N[C@@H](Cc1ccccc1)C(=O)N[C@@H](CC(C)C)C(=O)[C@](C)(O)COP(=O)(c1ccccc1)c1ccccc1
c20s; [4]
  IC50: 2670 nM
i20s; [5]
  IC50: 2550 nM

## COC[C@H](NC(=O)c1cnc(C)s1)C(=O)N[C@@H](COC)C(=O)N[C@@H](Cc1ccccc1)C(=O)[C@@](C)(CI)OC(=O)OCc1ccc(OC(C)=O)cc1 [20-22]
[1]
  Human Liver S9 % Conversion @ 1 hour: 28%

## COC[C@H](NC(=O)c1cnc(C)s1)C(=O)N[C@@H](COC)C(=O)N[C@@H](Cc1ccccc1)C(=O)[C@@](C)(CI)OC=O [20-24]
[1]
  Human Liver S9 % Conversion @ 1 hour: 29%

## CC(C)C[C@H](NC(=O)[C@H](CCc1ccccc1)NC(=O)CN1CCOCC1)C(=O)N[C@@H](Cc1ccccc1)C(=O)N[C@@H](CC(C)C)C(=O)[C@](C)(O)COn1nnc2ccccc21
c20s; [7]
  IC50: 2470 nM
i20s; [5]
  IC50: 2820 nM

## COC[C@H](NC(=O)c1cnc(C)s1)C(=O)N[C@@H](COC)C(=O)N[C@@H](Cc1ccccc1)C(=O)[C@](C)(O)CBr [20-3]
[2]
  Buffer pH = 7.4 % Conversion @ 1 hour: 23%

## CC(C)C[C@H](NC(=O)[C@H](CCc1ccccc1)NC(=O)C[N+]1(COC(=O)C(C)(C)C)CCOCC1)C(=O)N[C@@H](Cc1ccccc1)C(=O)N[C@@H](CC(C)C)C(=O)[C@@]1(C)CO1
c20s; [4]
  IC50: 8.91 nM
i20s; [8]
  IC50: 49.8 nM

## CCOC(=O)O[C@](C)(CI)C(=O)[C@H](Cc1ccccc1)NC(=O)[C@H](COC)NC(=O)[C@H](COC)NC(=O)c1cnc(C)s1 [20-25]
[1]
  Human Liver S9 % Conversion @ 1 hour: 14%

## COC[C@H](NC(=O)c1cnc(C)s1)C(=O)N[C@@H](COC)C(=O)N[C@@H](Cc1ccccc1)C(=O)[C@@](C)(CI)OC(=O)Oc1ccccc1 [20-26]
[1]
  Human Liver S9 % Conversion @ 1 hour: 32%

## COC[C@H](NC(=O)c1cnc(C)s1)C(=O)N[C@@H](COC)C(=O)N[C@@H](Cc1ccccc1)C(=O)[C@](C)(O)COS(=O)(=O)CC(F)F [20-6]
[2]
  Buffer pH = 7.4 % Conversion @ 1 hour: 5.7%

## CCOC(=O)CCC(=O)O[C@](C)(CI)C(=O)[C@H](Cc1ccccc1)NC(=O)[C@H](COC)NC(=O)[C@H](COC)NC(=O)c1cnc(C)s1 [20-17]
[1]
  Human Liver S9 % Conversion @ 1 hour: 1%

## COC[C@H](NC(=O)c1cnc(C)s1)C(=O)N[C@@H](COC)C(=O)N[C@@H](Cc1ccccc1)/C(=N/OC)[C@@]1(C)CO1
c20s; IC50 60 minute point c20s, Table H, 60 minute point, value marked * (Table G: did not converge)
  IC50: 2560 nM
i20s; Table H, 60 minute point
  IC50 60 minute point i20s: inactive

## COC[C@H](NC(=O)c1cnc(C)s1)C(=O)N[C@@H](COC)C(=O)N[C@@H](Cc1ccccc1)C(=O)[C@](C)(O)COS(=O)(=O)Cc1ccccc1 [compound 23]
[2]
  Buffer pH = 7.4 % Conversion @ 1 hour: 9.6%

## COC[C@H](NC(=O)c1cnc(C)s1)C(=O)N[C@@H](COC)C(=O)N[C@@H](Cc1ccccc1)C(=O)[C@@](C)(CI)OC(=O)COc1ccccc1 [20-19]
[1]
  Human Liver S9 % Conversion @ 1 hour: 7%

## COC[C@H](NC(=O)c1cnc(C)s1)C(=O)N[C@@H](COC)C(=O)N[C@@H](Cc1ccccc1)C(=O)[C@](C)(O)COP(=O)(c1ccccc1)c1ccccc1
c20s; Table H, 60 minute point
  IC50 60 minute point c20s: inactive
i20s; Table H, 60 minute point
  IC50 60 minute point i20s: inactive
